Reference: US20210251237A1, “PLATFORM FOR DEVELOPING SOIL-BORNE PLANT PATHOGEN INHIBITING MICROBIAL CONSORTIA” (priority 2018, published 2021)
Where two headings read alike, the source gives them in different places. Marks after values point to notes of the source that are not given here.

How the values were obtained:
[1] = tested on: Rhizoctonia solani; assay: Pathogen suppressive activity plate assay (zone of inhibition); type: cell-based; details: for zone of inhibition: Table 1, pathogen isolate P6; for mean inhibitory zone size: Table 4
[2] = tested on: Sclerotinia sclerotiorum; assay: as above; type: cell-based; details: for zone of inhibition: Table 1, pathogen isolate P19; for mean inhibitory zone size: Table 4
[3] = tested on: Fusarium oxysporum; assay: as above; type: cell-based; details: for zone of inhibition: Table 1; for mean inhibitory zone size: Table 4
[4] = tested on: Fusarium graminearum; type: cell-based; parameters: key to pathogen suppression (symbol): + refers to instances where there is some evidence for inhibition immediately over the surface of the dotted strain, but no clear inhibition zone beyond the dotted colony's edge; details: for zone of inhibition: Table 1; for pathogen suppression (symbol) / mean inhibitory zone size: Table 4
[5] = tested on: Phytophthora medicaginis; assay: Pathogen suppressive activity plate assay (zone of inhibition); type: cell-based; details: for zone of inhibition: Table 1; for mean inhibitory zone size: Table 4
[6] = tested on: Phytophthora sojae; assay: as above; type: cell-based; details: for zone of inhibition: Table 1, pathogen isolate P52; for mean inhibitory zone size: Table 4, pathogen target isolate P52
[7] = tested on: Pythium ultimum var. sporangiferum; assay: as above; type: cell-based; details: for zone of inhibition: Table 1, pathogen isolate P58; for mean inhibitory zone size: Table 4, pathogen target isolate P58
[8] = tested on: F. culmorum; assay: as above; type: cell-based; details: Table 1; pathogen isolate P61
[9] = tested on: Fusarium virguliforme; assay: as above; type: cell-based; details: Table 4
[10] = tested on: clinical antimicrobials (antibiotic discs); assay: Antibiotic disc resistance/susceptibility assay of microbial isolates; type: cell-based
[11] = tested on: GS1, PS1 and PS3 (overlaid isolates); assay: Mutual inhibition activity among GS1, PS1 and PS3; type: cell-based; details: for inhibition zone size: mild inhibition
Protocol: Each of the microbes—GS1, PS1 and PS3—was grown in the presence of every other isolate (i.e., GS1 with PS1; GS1 with PS3; and PS1 with PS3). Briefly, isolates GS1, PS1 and PS3 were dotted onto the center of individual petri dishes and allowed to grow for 3 days. Dotted isolates were then killed by placing petri dishes over a chloroform-filled watch glass in a safety cabinet for one hour. Subsequently, overlays of the other two isolates spread across the entire petri dish surface. In this way, each isolate was tested as a potential inhibitor (dotted isolates) in combination with every isolate as a target (overlaid isolates). The growth of the microbial isolates was evaluated for the presence or absence of zones of inhibition at the interphase between the bacterial isolates. […] Results from this analysis show the potential for isolates to coexist without inhibiting one another.

[12] = tested on: potato scab; assay: Potato field trials: percent scab control; type: in vivo; parameters: concentration or dose not given beside the values
[13] = tested on: GS1 and PS3 (inhibition zones on Bacillus lawns); assay: Antimicrobial signaling/responsiveness among GS1, PS1, PS3; type: cell-based; details: increased inhibition zones around GS1 and PS3 vs single inoculant controls
[14] = tested on: random collection of Streptomyces from field soils; assay: Enhancement of antibiotic production in field-soil Streptomyces; type: cell-based

Substance: Brevibacillus laterosporus [PS3]
- zone of inhibition [1]: 12.25 mm
- mean inhibitory zone size ([1]; pathogen target isolate P5): 3.25 mm
- mean inhibitory zone size ([1]; pathogen target isolate P6): 1.7875 mm
- mean inhibitory zone size ([1]; pathogen target isolate P12): 1.5 mm
- zone of inhibition [2]: 11.48 mm
- mean inhibitory zone size ([2]; pathogen target isolate P16): 4.517 mm
- mean inhibitory zone size ([2]; pathogen target isolate P17): 5.567 mm
- mean inhibitory zone size ([2]; pathogen target isolate P18): 4.975 mm
- mean inhibitory zone size ([2]; pathogen target isolate P19): 5.8 mm
- zone of inhibition ([3]; pathogen isolate P27): 0 mm
- zone of inhibition ([3]; pathogen isolate P29): 0 mm
- mean inhibitory zone size ([3]; pathogen target isolate P25): 3.725 mm
- mean inhibitory zone size ([3]; pathogen target isolate P26): 4.1 mm
- mean inhibitory zone size ([3]; pathogen target isolate P28): 5.6 mm
- mean inhibitory zone size ([3]; pathogen target isolate P29): 4.225 mm
- zone of inhibition ([4]; pathogen isolate P31): 10.35 mm
- zone of inhibition ([4]; pathogen isolate P34): 14.58 mm
- pathogen suppression (symbol) ([4]; pathogen target isolate P30): +**
- pathogen suppression (symbol) ([4]; pathogen target isolate P31): +
- pathogen suppression (symbol) ([4]; pathogen target isolate P32): +
- pathogen suppression (symbol) ([4]; pathogen target isolate P33): +
- pathogen suppression (symbol) ([4]; pathogen target isolate P34): +
- pathogen suppression (symbol) ([4]; pathogen target isolate P35): +
- zone of inhibition ([5]; pathogen isolate P43): 12.55 mm
- zone of inhibition ([5]; pathogen isolate P44): 6.53 mm
- mean inhibitory zone size ([5]; pathogen target isolate P43): 5.6 mm
- mean inhibitory zone size ([5]; pathogen target isolate P44): 9.125 mm
- zone of inhibition [6]: 0 mm
- mean inhibitory zone size [6]: 10.3 mm
- zone of inhibition [7]: 3.73 mm
- mean inhibitory zone size [7]: 6.6 mm
- zone of inhibition [8]: 5.48 mm
- mean inhibitory zone size ([9]; pathogen target isolate P20): 5.2 mm
- mean inhibitory zone size ([9]; pathogen target isolate P21): 9.5 mm
- mean inhibitory zone size ([9]; pathogen target isolate P22): 8.975 mm
- mean inhibitory zone size ([9]; pathogen target isolate P23): 6.175 mm
- Antibiotic resistance characteristics ([10]; Amoxicillin Clavulanate): MR (MR-moderately resistant (1-5 mm))
- Antibiotic resistance characteristics ([10]; Chloramphenicol): MS (MS-moderately susceptible (6-10 mm))
- Antibiotic resistance characteristics ([10]; Erythromycin): S (S-susceptible (>10 mm))
- Antibiotic resistance characteristics ([10]; Kanamycin): S (S-susceptible (>10 mm))
- Antibiotic resistance characteristics ([10]; Novobiocin 5): S (S-susceptible (>10 mm))
- Antibiotic resistance characteristics ([10]; Novobiocin 30): S (S-susceptible (>10 mm))
- Antibiotic resistance characteristics ([10]; Rifampin): MR (MR-moderately resistant (1-5 mm))
- Antibiotic resistance characteristics ([10]; Streptomycin): S (S-susceptible (>10 mm))
- Antibiotic resistance characteristics ([10]; Tetracycline): MR (MR-moderately resistant (1-5 mm))
- Antibiotic resistance characteristics ([10]; Vancomycin 5): MS (MS-moderately susceptible (6-10 mm))
- Antibiotic resistance characteristics ([10]; Vancomycin 30): S (S-susceptible (>10 mm))
- inhibition of the other members of the combination [11]: Neither isolate PS3 nor GS3 inhibit
- Percent Control (reduction in scab severity vs non-inoculated plots) ([12]; experiment BPP, disease on non-inoculated tubers 22.2): 27%
- Percent Control (reduction in scab severity vs non-inoculated plots) ([12]; experiment BSP, disease on non-inoculated tubers 24.3): 40%
- Percent Control (reduction in scab severity vs non-inoculated plots) ([12]; experiment BWP, disease on non-inoculated tubers 26.7): 30%
- Percent Control (reduction in scab severity vs non-inoculated plots) ([12]; experiment RPP, disease on non-inoculated tubers 15.6): 23%
- Percent Control (reduction in scab severity vs non-inoculated plots) ([12]; experiment RSCRG1, disease on non-inoculated tubers 28.1): 34%
- Percent Control (reduction in scab severity vs non-inoculated plots) ([12]; experiment RSP, disease on non-inoculated tubers 8.8): 42%

Substance: Streptomyces sp. 3211.1 [PS1]
- zone of inhibition [1]: 0 mm
- mean inhibitory zone size ([1]; pathogen target isolate P5): 0 mm
- mean inhibitory zone size ([1]; pathogen target isolate P6): 0 mm
- mean inhibitory zone size ([1]; pathogen target isolate P12): 0 mm
- zone of inhibition [2]: 0 mm
- mean inhibitory zone size ([2]; pathogen target isolate P17): 12.8 mm
- mean inhibitory zone size ([2]; pathogen target isolate P18): 3.25 mm
- mean inhibitory zone size ([2]; pathogen target isolate P19): 0 mm
- zone of inhibition ([3]; pathogen isolate P27): 0 mm
- zone of inhibition ([3]; pathogen isolate P29): 0 mm
- mean inhibitory zone size ([3]; pathogen target isolate P25): 0 mm
- mean inhibitory zone size ([3]; pathogen target isolate P26): 0 mm
- mean inhibitory zone size ([3]; pathogen target isolate P28): 0 mm
- mean inhibitory zone size ([3]; pathogen target isolate P29): 0 mm
- zone of inhibition ([4]; pathogen isolate P31): 3.05 mm
- zone of inhibition ([4]; pathogen isolate P34): 0 mm
- mean inhibitory zone size ([4]; pathogen target isolate P30): 0 mm
- mean inhibitory zone size ([4]; pathogen target isolate P31): 3.05 mm
- mean inhibitory zone size ([4]; pathogen target isolate P32): 0 mm
- mean inhibitory zone size ([4]; pathogen target isolate P33): 0 mm
- mean inhibitory zone size ([4]; pathogen target isolate P34): 0 mm
- mean inhibitory zone size ([4]; pathogen target isolate P35): 0 mm
- zone of inhibition ([5]; pathogen isolate P43): 0 mm
- zone of inhibition ([5]; pathogen isolate P44): 0 mm
- mean inhibitory zone size ([5]; pathogen target isolate P43): 0 mm
- mean inhibitory zone size ([5]; pathogen target isolate P44): 0 mm
- zone of inhibition [6]: 0 mm
- mean inhibitory zone size [6]: 0 mm
- zone of inhibition [7]: 0 mm
- mean inhibitory zone size [7]: 0 mm
- zone of inhibition [8]: 0 mm
- mean inhibitory zone size ([9]; pathogen target isolate P20): 0 mm
- mean inhibitory zone size ([9]; pathogen target isolate P21): 0 mm
- mean inhibitory zone size ([9]; pathogen target isolate P22): 0 mm
- mean inhibitory zone size ([9]; pathogen target isolate P23): 3.58 mm
- Antibiotic resistance characteristics ([10]; Amoxicillin Clavulanate): MR (MR-moderately resistant (1-5 mm))
- Antibiotic resistance characteristics ([10]; Chloramphenicol): R (R-resistant (0 inhibition zone))
- Antibiotic resistance characteristics ([10]; Erythromycin): MR (MR-moderately resistant (1-5 mm))
- Antibiotic resistance characteristics ([10]; Kanamycin): S (S-susceptible (>10 mm))
- Antibiotic resistance characteristics ([10]; Novobiocin 5): MR (MR-moderately resistant (1-5 mm))
- Antibiotic resistance characteristics ([10]; Novobiocin 30): MS (MS-moderately susceptible (6-10 mm))
- Antibiotic resistance characteristics ([10]; Penicillin): R (R-resistant (0 inhibition zone))
- Antibiotic resistance characteristics ([10]; Rifampin): MR (MR-moderately resistant (1-5 mm))
- Antibiotic resistance characteristics ([10]; Streptomycin): MS (MS-moderately susceptible (6-10 mm))
- Antibiotic resistance characteristics ([10]; Tetracycline): MR (MR-moderately resistant (1-5 mm))
- Antibiotic resistance characteristics ([10]; Vancomycin 5): MS (MS-moderately susceptible (6-10 mm))
- Antibiotic resistance characteristics ([10]; Vancomycin 30): MS (MS-moderately susceptible (6-10 mm))
- inhibition zone size ([11]; against GS1): < 5 mm
- inhibition zone size ([11]; against GS3 (so in the source)): < 5 mm
- effect on antibiotic production by the two other isolates [13]: enhance antibiotic production
- more effective than other isolates in enhancing antibiotic production [14]: ~50%
- share of a random collection of Streptomyces whose antibiotic production is enhanced [14]: 30%
